In ChEMBL document CHEMBL1131339 (J Med Chem, 1998):

Tests used:
Melatonin receptor = Melatonin receptor (Gallus gallus, UniProt P49288+P51050+P49285); test: Binding affinity towards melatonin receptor, determined in chicken brain membranes using [2-125I]melatonin; type: cell membranes, Membrane
Melanophore [1] = test: Inhibitory concentration against melatonin-induced pigment aggregation by 50% in Xenopus laevis dermal melanophore cell line; type: functional, cell-based, frog
Melanophore [2] = test: Effective concentration required to produce 50% of the maximal pigment aggregation in Xenopus laevis dermal melanophore cell line; type: functional, cell-based, frog
Melanophore [3] = test: Effective concentration required to produce 50% of the maximal pigment aggregation in Xenopus laevis dermal melanophore cell line; No agonist effect detected at 100 uM; type: functional, cell-based, frog

SMILES | Ki (Melatonin receptor) [nM] | IC50 (Melanophore [1]) | EC50 (Melanophore [2]; Xenopus laevis, Melanophore) [nM] | EC50 (Melanophore [3]) | EC50 (Melanophore [2]; melanophore) [nM]
CCC(=O)NCC1CCCc2c1c1ccccc1n2C (stereo unspecified) | 204 | Not Active | 862 | – | –
CCC(=O)NCC1CCCc2c1c1cc(OC)ccc1n2C (stereo unspecified) | 1.44 | Not Active | 0.31 | – | –
Cn1c2c(c3cc(OC(F)(F)F)ccc31)C(CNC(=O)C1CCC1)CCC2 (stereo unspecified) | 1240 | 41000 nM | – | Not Active | –
COc1ccc2c(c1)c1c(n2C)CCCCC1CNC(C)=O (stereo unspecified) | 24 | 10000 nM | 258 | – | –
Cn1c2c(c3ccccc31)C(CNC(=O)C1CC1)CCC2 (stereo unspecified) | 4460 | 15000 nM | – | Not Active | –
CCC(=O)NCC1CCCc2c1c1cc(OC(F)(F)F)ccc1n2C (stereo unspecified) | 40.2 | 6000 nM | 733 | – | –
CC(=O)NCC1CCc2c1c1ccccc1n2C (stereo unspecified) | 516 | Not Active | 6360 | – | –
Cn1c2c(c3cc(Cl)ccc31)C(CNC(=O)C1CC1)CCC2 (stereo unspecified) | 131.6 | 33000 nM | 1510 | – | –
CC(=O)NCC1CCCc2c1c1cc(Cl)ccc1n2C (stereo unspecified) | 2.12 | Not Active | 5.2 | – | –
CCCC(=O)NCC1CCc2c1c1cc(OC)ccc1n2C (stereo unspecified) | 23 | 14000 nM | 335 | – | –
CCCC(=O)NCC1CCCc2c1c1cc(OC)ccc1n2C (stereo unspecified) | 0.378 | Not Active | 0.44 | – | –
CC(=O)NCC1CCCc2c1c1cc(C)ccc1n2C (stereo unspecified) | 16.1 | Not Active | 108 | – | –
Cn1c2c(c3ccccc31)C(CNC(=O)C1CCC1)CCCC2 (stereo unspecified) | 1690 | 44000 nM | – | Not Active | –
CCC(=O)NCC1CCCc2c1c1cc(C)ccc1n2C (stereo unspecified) | 7.66 | Not Active | 128 | – | –
CCCCC(=O)NCC1CCCc2c1c1ccccc1n2C (stereo unspecified) | > 10000 | 17000 nM | – | Not Active | –
CCCCC(=O)NCC1CCCCc2c1c1ccccc1n2C (stereo unspecified) | 8300 | 42000 nM | – | Not Active | –
Cc1ccc2c(c1)c1c(n2C)CCCC1CNC(=O)C1CCC1 (stereo unspecified) | 555 | Not Active | 1450 | – | –
COc1ccc2c(c1)c1c(n2C)CCCCC1CNC(=O)C1CC1 (stereo unspecified) | 44.7 | 43000 nM | 470 | – | –
CCC(=O)NCC1CCCc2c1c1cc(CC)ccc1n2C (stereo unspecified) | 27.5 | 62000 nM | 305 | – | –
COc1ccc2c(c1)c1c(n2C)CCC1CNC(=O)C1CC1 (stereo unspecified) | 459 | 11000 nM | – | Not Active | –

SMILES | Ki (Melatonin receptor) [nM] | IC50 (Melanophore [1]) | EC50 (Melanophore [2]; Xenopus laevis, Melanophore) [nM] | EC50 (Melanophore [3]) | EC50 (Melanophore [2]; melanophore) [nM]
CCC(=O)NC1CCc2[nH]c3ccc(OC)cc3c2C1 (stereo unspecified) | – | Not Active | 7 | – | –
COc1ccc2[nH]c3c(c2c1)CC(NC(=O)C1CC1)CC3 (stereo unspecified) | 143 | Not Active | 195 | – | –
O=C(NC1CCc2[nH]c3ccccc3c2C1)C(F)(F)F (stereo unspecified) | – | 43000 nM | – | Not Active | –
CCCC(=O)NC1CCc2[nH]c3ccc(OC)cc3c2C1 (stereo unspecified) | – | Not Active | 25 | – | –
O=C(CBr)NC1CCc2[nH]c3ccccc3c2C1 (stereo unspecified) | – | 39000 nM | – | Not Active | –
COc1ccc2c(c1)c1c(n2C)CCCC1CNC(=O)C1CCC1 (stereo unspecified) | 271 | Not Active | 139 | – | –
Cn1c2c(c3ccccc31)C(CNC(=O)C(F)(F)F)CCCC2 (stereo unspecified) | > 10000 | Not Active | – | Not Active | –
COc1ccc2c(c1)c1c(n2C)CCCCC1CNC(=O)C1CCC1 (stereo unspecified) | 144.8 | 18000 nM | – | Not Active | –
CC(=O)NCC1CCCc2c1c1cc(OC(F)(F)F)ccc1n2C (stereo unspecified) | 141.7 | 42000 nM | 2030 | – | –
CCCCC(=O)NCC1CCCc2c1c1cc(OC)ccc1n2C (stereo unspecified) | 82 | Not Active | 132 | – | –
CCCCC(=O)NCC1CCc2c1c1ccccc1n2C (stereo unspecified) | > 10000 | 46000 nM | – | Not Active | –
Cn1c2c(c3ccccc31)C(CNC(=O)C1CC1)CC2 (stereo unspecified) | 5100 | 59000 nM | – | Not Active | –
CC(=O)NCC1CCCCc2c1c1ccccc1n2C (stereo unspecified) | 424 | 54000 nM | – | Not Active | –
CCCC(=O)NCC1CCCc2c1c1ccccc1n2C (stereo unspecified) | 215 | Not Active | 966 | – | –
COc1ccc2c(c1)c1c(n2C)CCC1CNC(C)=O (stereo unspecified) | 161 | Not Active | 423 | – | –
COc1ccc2c(c1)c1c(n2C)CCCC1CNC(=O)C(F)(F)F (stereo unspecified) | 1.98 | Not Active | 2.1 | – | –
COc1ccc2[nH]c3c(c2c1)CC(NC(=O)CBr)CC3 (stereo unspecified) | – | 11000 nM | 32 | – | –
CCCC(=O)NC1CCc2[nH]c3ccccc3c2C1 (stereo unspecified) | – | Not Active | 12600 | – | –
CCC(Br)C(=O)NC1CCc2[nH]c3ccccc3c2C1 (stereo unspecified) | > 10000 | 32000 nM | – | Not Active | –
COc1ccc2[nH]c3c(c2c1)CC(NC(C)=O)CC3 (stereo unspecified) | – | Not Active | 32 | – | –

SMILES | Ki (Melatonin receptor) [nM] | IC50 (Melanophore [1]) | EC50 (Melanophore [2]; Xenopus laevis, Melanophore) [nM] | EC50 (Melanophore [3]) | EC50 (Melanophore [2]; melanophore) [nM]
CCC(=O)NC1CCc2[nH]c3ccccc3c2C1 (stereo unspecified) | – | Not Active | 3270 | – | –
COc1ccc2[nH]c3c(c2c1)CC(NC(=O)C(F)(F)F)CC3 (stereo unspecified) | – | Not Active | 32 | – | –
CC(=O)NC1CCc2[nH]c3ccccc3c2C1 (stereo unspecified) | – | 64000 nM | – | Not Active | –
Cn1c2c(c3ccccc31)C(CNC(=O)C(F)(F)F)CCC2 (stereo unspecified) | > 10000 | 35000 nM | – | Not Active | –
COc1ccc2c(c1)c1c(n2C)CCCC1CNC(=O)C1CC1 (stereo unspecified) | 30 | 48000 nM | 119 | – | –
CCCC(=O)NCC1CCCCc2c1c1ccccc1n2C (stereo unspecified) | 84 | 53000 nM | – | Not Active | –
Cn1c2c(c3ccccc31)C(CNC(=O)C(F)(F)F)CC2 (stereo unspecified) | > 10000 | Not Active | – | Not Active | –
O=C(NCCc1c(-c2ccccc2)[nH]c2ccccc12)C1CCC1 | 565 | 3400 nM | – | Not Active | –
CCC(=O)NCC1CCc2c1c1cc(OC)ccc1n2C (single isomer, unassigned; (+)) | 243 | Not Active | – | – | 789
COc1ccc2c(c1)c1c(n2C)CCCC1CNC(C)=O (single isomer, unassigned; (+)) | 48.4 | – | – | – | 14.8
CC(=O)NCC1CCCc2c1c1ccccc1n2C (single isomer, unassigned; (-)) | 40 | – | – | – | 189
CCC(=O)NCC1CCc2c1c1cc(OC)ccc1n2C (single isomer, unassigned; (-)) | 1.7 | – | – | – | 3.4
COc1ccc2c(c1)c1c(n2C)CCCC1CNC(C)=O (single isomer, unassigned; (-)) | 0.372 | – | – | – | 0.3
CC(=O)NCC1CCCc2c1c1ccccc1n2C (stereo in doubt; 9a) | 227 | Not Active | – | – | 599
COc1ccc2c(c1)c1c(n2C)CCCC1CNC(C)=O (stereo in doubt; 9g) | – | Not Active | – | – | 0.7
CCC(=O)NCC1CCc2c1c1cc(OC)ccc1n2C (stereo in doubt; 10i) | 16 | – | – | – | 408
CCC(=O)NCC1CCCCc2c1c1cc(OC)ccc1n2C (stereo in doubt; 11i(-)) | 6.5 | – | – | – | 118
COc1ccc2[nH]cc(CCNC(C)=O)c2c1 [MELATONIN] | – | Not Active | 0.23 | – | –
